In patent publication US9579314B2 (priority 2015, dated 2017):

How the values were obtained:
[1] = target: Human M3 receptor (Homo sapiens, UniProt P20309); details: read-out: M3 binding affinity
[2] = target: Human β2 adrenoceptor (Homo sapiens, UniProt P07550); details: read-out: B2 binding affinity
Human β2 adrenoceptor, sequence (P07550 whole entry): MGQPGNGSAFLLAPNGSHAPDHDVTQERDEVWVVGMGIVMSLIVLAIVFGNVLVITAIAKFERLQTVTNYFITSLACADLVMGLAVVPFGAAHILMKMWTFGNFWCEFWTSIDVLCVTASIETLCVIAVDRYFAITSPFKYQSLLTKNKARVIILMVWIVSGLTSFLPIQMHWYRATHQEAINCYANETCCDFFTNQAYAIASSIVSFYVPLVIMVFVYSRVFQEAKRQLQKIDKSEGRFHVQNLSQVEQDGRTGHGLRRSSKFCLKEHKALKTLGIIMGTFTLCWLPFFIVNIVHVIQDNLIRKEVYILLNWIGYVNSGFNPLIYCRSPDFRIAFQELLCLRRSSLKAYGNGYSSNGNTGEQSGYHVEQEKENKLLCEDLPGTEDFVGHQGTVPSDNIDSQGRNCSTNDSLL

Human M3 receptor, sequence (P20309 whole entry): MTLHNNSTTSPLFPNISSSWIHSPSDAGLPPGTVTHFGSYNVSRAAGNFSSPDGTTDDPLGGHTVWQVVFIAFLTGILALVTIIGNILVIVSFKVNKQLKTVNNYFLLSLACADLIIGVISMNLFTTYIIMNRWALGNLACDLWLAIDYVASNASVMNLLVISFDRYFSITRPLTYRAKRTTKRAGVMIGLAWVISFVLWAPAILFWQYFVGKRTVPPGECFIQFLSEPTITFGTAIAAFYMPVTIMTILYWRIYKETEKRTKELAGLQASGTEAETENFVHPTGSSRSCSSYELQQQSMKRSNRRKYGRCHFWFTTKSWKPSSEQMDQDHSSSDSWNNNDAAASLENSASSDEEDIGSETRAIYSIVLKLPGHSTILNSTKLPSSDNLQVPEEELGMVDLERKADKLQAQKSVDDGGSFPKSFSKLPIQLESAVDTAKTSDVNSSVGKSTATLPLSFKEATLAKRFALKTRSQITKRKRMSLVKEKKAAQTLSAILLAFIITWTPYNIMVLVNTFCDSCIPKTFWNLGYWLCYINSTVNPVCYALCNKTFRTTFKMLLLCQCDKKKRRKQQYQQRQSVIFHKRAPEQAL

Row | SMILES | IC50 [1] [nM] | IC50 [2] [nM]
1 | O=C(c1ccc(CCNC[C@H](O)c2ccc(O)c3[nH]c(=O)ccc23)cc1)N1CC2(C1)CN(C(=O)c1ccc(COc3cccc([C@](O)(C(=O)OCC4CCN(Cc5ccccc5)CC4)c4ccccc4)c3)cc1)C2 [Compound 116, (1-benzylpiperidin-4-yl)methyl (S)-2-hydroxy-2-(3-((4-(6-(4-(2-(((R)-2-hydroxy-2-(8-hydroxy-2-oxo-1,2-dihydroquinolin-5-yl)ethyl)amino)ethyl)benzoyl)-2,6-diazaspiro[3.3]heptane-2-carbonyl)benzyl)oxy)phenyl)-2-phenylacetate] | 0.3 to 3 | < 0.3
2 | O=C(COc1cccc([C@](O)(C(=O)OCC2CCN(Cc3ccccc3)CC2)c2ccccc2)c1)N[C@H]1C[C@H](NC(=O)c2ccc(CNC[C@H](O)c3ccc(O)c4[nH]c(=O)ccc34)c(O)c2)C1 [Compound 127, (1-Benzylpiperidin-4-yl)methyl (S)-2-hydroxy-2-(3-(2-(((1R,3S)-3-(3-hydroxy-4-((((R)-2-hydroxy-2-(8-hydroxy-2-oxo-1,2-dihydroquinolin-5-yl)ethyl)amino)methyl)-benzamido)cyclobutyl)amino)-2-oxoethoxy)phenyl)-2-phenylacetate] | < 0.3 | < 0.3
3 | O=C(NCCNC(=O)c1ccc(COc2cccc([C@](O)(C(=O)OCC3CCN(Cc4ccccc4)CC3)c3ccccc3)c2)cc1)c1ccc(CNC[C@H](O)c2ccc(O)c3[nH]c(=O)ccc23)cc1 [Compound 125, (1-benzylpiperidin-4-yl)methyl (S)-2-hydroxy-2-(3-((4-((2-(4-((((R)-2-hydroxy-2-(8-hydroxy-2-oxo-1,2-dihydroquinolin-5-yl)ethyl)amino)methyl)benzamido)ethyl)carbamoyl)benzyl)oxy)phenyl)-2-phenylacetate] | 0.3 to 3 | 0.3 to 3
4 | O=C(COc1cccc([C@](O)(C(=O)OCC2CCN(Cc3ccccc3)CC2)c2ccccc2)c1)N[C@H]1CCN(C(=O)c2ccc(CCNC[C@H](O)c3ccc(O)c4[nH]c(=O)ccc34)cc2)C1 [Compound 107, (1-benzylpiperidin-4-yl)methyl (S)-2-hydroxy-2-(3-(2-(((S)-1-(4-(2-(((R)-2-hydroxy-2-(8-hydroxy-2-oxo-1,2-dihydroquinolin-5-yl)ethyl)amino)ethyl)benzoyl)pyrrolidin-3-yl)amino)-2-oxoethoxy)phenyl)-2-phenylacetate] | 0.3 to 3 | < 0.3
5 | O=C(COc1cccc([C@](O)(C(=O)OCC2CCN(Cc3ccccc3)CC2)c2ccccc2)c1)N[C@H]1CCCN(C(=O)c2ccc(CCNC[C@H](O)c3ccc(O)c4[nH]c(=O)ccc34)cc2)C1 [Compound 106, (1-benzylpiperidin-4-yl)methyl (S)-2-hydroxy-2-(3-(2-(((S)-1-(4-(2-(((R)-2-hydroxy-2-(8-hydroxy-2-oxo-1,2-dihydroquinolin-5-yl)ethyl)amino)ethyl)benzoyl)piperidin-3-yl)amino)-2-oxoethoxy)phenyl)-2-phenylacetate] | 0.3 to 3 | 0.3 to 3
6 | O=C(COc1cccc([C@](O)(C(=O)OCC2CCN(Cc3ccccc3)CC2)c2ccccc2)c1)N[C@@H]1CCCN(C(=O)c2ccc(CCNC[C@H](O)c3ccc(O)c4[nH]c(=O)ccc34)cc2)C1 [Compound 105, (1-benzylpiperidin-4-yl)methyl (S)-2-hydroxy-2-(3-(2-(((R)-1-(4-(2-(((R)-2-hydroxy-2-(8-hydroxy-2-oxo-1,2-dihydroquinolin-5-yl)ethyl)amino)ethyl)benzoyl)piperidin-3-yl)amino)-2-oxoethoxy)phenyl)-2-phenylacetate] | 0.3 to 3 | 0.3 to 3
7 | O=C(NCCCNC(=O)c1ccc(CNC[C@H](O)c2ccc(O)c3[nH]c(=O)ccc23)cc1)Nc1cccc(C(O)(C(=O)OCC2CCN(Cc3ccccc3)CC2)c2ccccc2)c1 (stereo partly drawn) [Compound 56, (1-benzylpiperidin-4-yl)methyl 2-hydroxy-2-(3-(3-(3-(4-((((R)-2-hydroxy-2-(8-hydroxy-2-oxo-1,2-dihydroquinolin-5-yl)ethyl)amino)methyl)benzamido)-propyl)ureido)phenyl)-2-phenylacetate diformate] | > 3 | > 3
8 | O=C(c1ccc(CCNC[C@H](O)c2ccc(O)c3[nH]c(=O)ccc23)cc1)N1CCC2(CC1)CN(C(=O)c1ccc(COc3cccc([C@](O)(C(=O)OCC4CCN(Cc5ccccc5)CC4)c4ccccc4)c3)cc1)C2 [Compound 117, (1-benzylpiperidin-4-yl)methyl (S)-2-hydroxy-2-(3-((4-(7-(4-(2-(((R)-2-hydroxy-2-(8-hydroxy-2-oxo-1,2-dihydroquinolin-5-yl)ethyl)amino)ethyl)benzoyl)-2,7-diazaspiro[3.5]nonane-2-carbonyl)benzyl)oxy)phenyl)-2-phenylacetate] | 0.3 to 3 | < 0.3
9 | O=C(COc1cccc([C@](O)(C(=O)OCC2CCN(Cc3ccccc3)CC2)c2ccccc2)c1)N1CC2(C1)CN(C(=O)c1ccc(CCNC[C@H](O)c3ccc(O)c4[nH]c(=O)ccc34)cc1)C2 [Compound 93, (1-benzylpiperidin-4-yl)methyl (S)-2-hydroxy-2-(3-(2-(6-(4-(2-(((R)-2-hydroxy-2-(8-hydroxy-2-oxo-1,2-dihydroquinolin-5-yl)ethyl)amino)ethyl)benzoyl)-2,6-diazaspiro[3.3]heptan-2-yl)-2-oxoethoxy)phenyl)-2-phenylacetate] | 0.3 to 3 | < 0.3
10 | O=C(COc1cccc([C@](O)(C(=O)OCC2CCN(Cc3ccccc3)CC2)c2ccccc2)c1)N[C@@H]1CCCN(C(=O)c2ccc(CNC[C@H](O)c3ccc(O)c4[nH]c(=O)ccc34)cc2)C1 [Compound 71, (1-benzylpiperidin-4-yl)methyl (S)-2-hydroxy-2-(3-(2-(((R)-1-(4-((((R)-2-hydroxy-2-(8-hydroxy-2-oxo-1,2-dihydroquinolin-5-yl)ethyl)amino)methyl)benzoyl)piperidin-3-yl)amino)-2-oxoethoxy)phenyl)-2-phenylacetate] | 0.3 to 3 | > 3
11 | O=C(c1ccc(CCNC[C@H](O)c2ccc(O)c3[nH]c(=O)ccc23)cc1)N1CC(COc2cccc([C@](O)(C(=O)OCC3CCN(Cc4ccccc4)CC3)c3ccccc3)c2)C1 [Compound 42, (S)-(1-benzylpiperidin-4-yl)methyl 2-hydroxy-2-(3-((1-(4-(2-(((R)-2-hydroxy-2-(8-hydroxy-2-oxo-1,2-dihydroquinolin-5-yl)ethyl)amino)ethyl)benzoyl)azetidin-3-yl)methoxy)phenyl)-2-phenylacetate] | < 0.3 | < 0.3
12 | O=C(COc1cccc([C@](O)(C(=O)OCC2CCN(Cc3ccccc3)CC2)c2ccccc2)c1)N1CC(C(=O)N2CCC(CNC[C@H](O)c3ccc(O)c4[nH]c(=O)ccc34)CC2)C1 [Compound 147, (1-Benzylpiperidin-4-yl)methyl (S)-2-hydroxy-2-(3-(2-(3-(4-((((R)-2-hydroxy-2-(8-hydroxy-2-oxo-1,2-dihydroquinolin-5-yl)ethyl)amino)methyl)piperidine-1-carbonyl)azetidin-1-yl)-2-oxoethoxy)phenyl)-2-phenylacetate] | 0.3 to 3 | < 0.3
13 | O=C(COc1cccc([C@](O)(C(=O)OCC2CCN(Cc3ccccc3)CC2)c2ccccc2)c1)NCC1CCN(C(=O)c2ccc(CCNC[C@H](O)c3ccc(O)c4[nH]c(=O)ccc34)cc2)CC1 [Compound 97, (1-benzylpiperidin-4-yl)methyl (S)-2-hydroxy-2-(3-(2-(((1-(4-(2-(((R)-2-hydroxy-2-(8-hydroxy-2-oxo-1,2-dihydroquinolin-5-yl)ethyl)amino)ethyl)benzoyl)piperidin-4-yl)methyl)amino)-2-oxoethoxy)phenyl)-2-phenylacetate] | 0.3 to 3 | < 0.3
14 | O=C(COc1cccc([C@](O)(C(=O)OCC2CCN(Cc3ccccc3)CC2)c2ccccc2)c1)N1CCC2(CC1)CN(C(=O)c1ccc(CCNC[C@H](O)c3ccc(O)c4[nH]c(=O)ccc34)cc1)C2 [Compound 96, (1-benzylpiperidin-4-yl)methyl (S)-2-hydroxy-2-(3-(2-(2-(4-(2-(((R)-2-hydroxy-2-(8-hydroxy-2-oxo-1,2-dihydroquinolin-5-yl)ethyl)amino)ethyl)benzoyl)-2,7-diazaspiro[3.5]nonan-7-yl)-2-oxoethoxy)phenyl)-2-phenylacetate] | < 0.3 | < 0.3
15 | COc1c(CNC[C@H](O)c2ccc(O)c3[nH]c(=O)ccc23)ccc(C(=O)NCCCOc2cccc([C@](O)(C(=O)OCC3CCN(Cc4ccccc4)CC3)c3ccccc3)c2)c1F [Compound 32F, (S)-(1-benzylpiperidin-4-yl)methyl 2-(3-(3-(2-fluoro-4-((((R)-2-hydroxy-2-(8-hydroxy-2-oxo-1,2-dihydroquinolin-5-yl)ethyl)amino)methyl)-3-methoxybenzamido)propoxy)phenyl)-2-hydroxy-2-phenylacetate] | 0.3 to 3 | < 0.3
16 | O=C(NC1CN(C(=O)COc2cccc([C@](O)(C(=O)OCC3CCN(Cc4ccccc4)CC3)c3ccccc3)c2)C1)c1ccc(CNC[C@H](O)c2ccc(O)c3[nH]c(=O)ccc23)cc1 [Compound 67, (1-benzylpiperidin-4-yl)methyl (S)-2-hydroxy-2-(3-(2-(3-(4-((((R)-2-hydroxy-2-(8-hydroxy-2-oxo-1,2-dihydroquinolin-5-yl)ethyl)amino)methyl)benzamido)azetidin-1-yl)-2-oxoethoxy)phenyl)-2-phenylacetate] | < 0.3 | < 0.3
17 | O=C(COc1cccc([C@](O)(C(=O)OCC2CCN(Cc3ccccc3)CC2)c2ccccc2)c1)N[C@H]1C[C@H](NC(=O)Cc2ccc(CNC[C@H](O)c3ccc(O)c4[nH]c(=O)ccc34)cc2)C1 [Compound 146, (1-benzylpiperidin-4-yl)methyl (S)-2-hydroxy-2-(3-(2-(((1R,3S)-3-(2-(4-((((R)-2-hydroxy-2-(8-hydroxy-2-oxo-1,2-dihydroquinolin-5-yl)ethyl)amino)methyl)phenyl)acetamido)cyclobutyl)amino)-2-oxoethoxy)phenyl)-2-phenylacetate] | 0.3 to 3 | > 3
